Consider 3 molecules from patent publication US10329307B2, “Heterocyclic compounds as inhibitors of platelet aggregation” (UNIVERSITE DE MONTREAL, priority 2015, dated 2019).

What is called IC50 is the concentration at which inhibition is half-maximal.

The target in this assay is PAR4 (Homo sapiens (Human), UniProt Q96RI0). Put plainly: FLIPR assay in PAR4-expressing HEK293 cells (PAR4 antagonist activity). Format: cell-based. The following applies: H-Ala-Phe(4-F)-Pro-Gly-Trp-Leu-Val-Lys-Asn-Gly-NH2-induced intracellular calcium mobilization, 11-point curves. The text has this: The FLIPR assay is an exemplary in vitro assay for measuring the activity of the PAR4 antagonists of the present invention. In this assay, intracellular calcium mobilization is induced in PAR4 expressing cells by a PAR4 agonist and calcium mobilization is monitored. See, e.g., Example A.
HEK293 cells stably expressing PAR4 were generated by a standard method of transfection of human […] cDNA expression vector or by RAGE technology from Athersys Inc. (Cleveland, Ohio) and selected based on PAR4 protein expression of mRNA expression. […] These cells express endogenous PAR1 and can elicit calcium signal upon stimulation with PAR1 agonist peptide. Cells were grown in Dulbecco's Modified Eagle's Medium (DMEM) (Invitrogen, Carlsbad, Calif.), 10% FBS, 1% PSG, 3 μg/ml puromycin and 25 nM Methotrexate) at 37° C. with 5% CO2.
FLIPR-based calcium mobilization assay in HEK293 cells was used to measure PAR4 antagonism, agonism, and selectivity against PAR1. […] Counter screens for agonist activity and PAR1 antagonist activity were also performed. Briefly, PAR1/PAR4-expressing HEK293 cells were grown in DMEM (Life Technology, Grand Island, N.Y.) containing 10% heat-inactivated FBS, 1% Penicillin-Streptomycin, 10 μg/mL blasticidin, and 100 μg/mL Zeocin at 37° C. with 5% CO2. Cells were plated overnight prior to the experiment in a black 384-well Purecoat Amine clear bottom plate (Becton Dickinson Biosciences, San Jose, Calif.) at 10,000 cells/well in 30 μL growth medium and incubated in a humidified chamber at 37° C. with 5% CO2 overnight. Prior to compound addition, the cell medium was replaced with 40 μL of 1× calcium and magnesium-containing Hank's Balanced Saline Solution (HBSS) (with 20 mM HEPES) and 1:1000 diluted fluorescent calcium indicator (Codex Biosolutions, Gaithersburg, Md.). After a 30 minute incubation period at 37° C. and a further 30 minute incubation and equilibration period at room temperature, 20 μL test compound (diluted in 1×HBSS buffer) was added at various concentrations at 0.17% dimethyl sulfoxide (DMSO) final concentration. Changes in fluorescence intensity were measured using a Functional Drug Screening System (FDSS, Hamamatsu, Japan) to determine agonist activities. The cells were then incubated for 30 minutes at room temperature followed by addition of 20 μL of agonist peptide for antagonist activity measurement. […] Compound potency was derived from 11-point concentration-response curves.
As indicated above, the FLIPR assay, an in vitro assay, measures the PAR4 antagonist activity of compounds tested as described in Example A.
In general terms: A change in cytosolic calcium serves as a functional read-out for many receptors and channels.

Sequence of PAR4 (Q96RI0 18-385): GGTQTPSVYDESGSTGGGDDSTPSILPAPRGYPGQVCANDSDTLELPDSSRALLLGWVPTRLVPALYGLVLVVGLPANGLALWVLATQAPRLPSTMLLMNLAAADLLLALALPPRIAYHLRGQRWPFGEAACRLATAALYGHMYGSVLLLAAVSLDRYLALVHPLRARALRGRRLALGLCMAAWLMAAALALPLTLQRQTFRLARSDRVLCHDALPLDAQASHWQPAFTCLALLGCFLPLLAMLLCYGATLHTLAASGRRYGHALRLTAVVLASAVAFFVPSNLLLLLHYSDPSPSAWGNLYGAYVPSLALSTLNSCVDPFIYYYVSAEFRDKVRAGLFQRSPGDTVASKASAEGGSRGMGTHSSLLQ

With `COc1cc(OC[C@@H]2CCCN(c3ccc(F)cc3)C2)c2cc(-c3cn4nc(OC)sc4n3)oc2c1` [Example 72], the IC50 was found to be 1.4 µM.
On to `COc1cc(OCC2CCCN(C3CCOCC3)C2)c2cc(-c3cn4nc(OC)sc4n3)oc2c1` (stereo not drawn) [Example 73], for which the IC50 is 47 µM.
The value for `COc1cc(OCC2CCCN(c3ccc(N)nc3)C2)c2cc(-c3cn4nc(OC)sc4n3)oc2c1` (stereo not drawn) [Example 74] was 28 µM.
